Results from patent US11840533B2, “Pyridinone-based epigenetic modifiers and uses thereof” (THE BOARD OF TRUSTEES OF THE UNIVERSITY OF ILLINOIS, priority 2017, dated 2023).

The compounds below were run on fulvestrant-resistant MCF7:5C-FR cells (assay: Fulvestrant-resistant breast cancer cell viability (cell proliferation) assay). Settings: 120 h, growth inhibition in fulvestrant-resistant MCF-7:CFR cells, 120 hrs.
Assay type: cell-based
Method: For the cell proliferation assay, the fulvestrant-resistant MCF7:5C-FR cells were seeded at about 2000 to about 2500/well in 96-well plates. The next day, compounds were add to the cells at desired serial concentrations form 3 nM to 10 uM. A final 0.1% (v/v) DMSO was used as vehicle control and 1 uM JQ1 was used as positive. The cell were grown in the normal culture condition for 120 hrs. Then the Hoechst 33342 dye were add to each well at a final concentration of 5 μg/ml, and put back to the incubator at 37 C for 90 min. The plates were scanned immediately after the incubation with Celigo (Nexcelcom Biocesnse) for the fluorescence of the nuclear using DAPI channel, and the cell number was counted thought the analysis function of the Celigo software. The normalized cell number to the vehicle control was used to represent the cell proliferation. […] N.D.=Not determined.
In the case of `Cn1cc(-c2cn(CC(N)=O)c3ccc(-c4ccc(F)cc4)cc23)c2ccnc(O)c21` [Compound 16, 2-(5-(4-fluorophenyl)-3-(7-hydroxy-1-methyl-1H-pyrrolo[2,3-c]pyridin-3-yl)-1H-indol-1-yl)acetamide], the IC50 is reported as > 1000 nM.
In the case of `Cn1cc(-c2c[nH]c3ccc(-c4ccc(F)cc4)cc23)c2ccnc(O)c21` [Compound 17, 3-(5-(4-fluorophenyl)-1H-indol-3-yl)-1-methyl-1H-pyrrolo[2,3-c]pyridin-7-ol], the IC50 is reported as > 1000 nM.
For `Cn1cc(-c2cn(CC(N)=O)c3ccc(Br)cc23)c2ccnc(O)c21` [Compound 18, 2-(5-bromo-3-(7-hydroxy-1-methyl-1H-pyrrolo[2,3-c]pyridin-3-yl)-1H-indol-1-yl)acetamide], the IC50 was > 1000 nM.
With `Cn1cc(-c2c[nH]c3ccc(Br)cc23)c2ccnc(O)c21` [Compound 19, 3-(5-bromo-1H-indol-3-yl)-1-methyl-1H-pyrrolo[2,3-c]pyridin-7-ol] the IC50 was > 1000 nM.
`Cn1cc(-c2cc(NS(C)(=O)=O)cc3ccn(Cc4ccc(F)cc4)c23)c2ccnc(O)c21` [Compound 20, N-(1-(4-fluorobenzyl)-7-(7-hydroxy-1-methyl-1H-pyrrolo[2,3-c]pyridin-3-yl)-1H-indol-5-yl)methanesulfonamide] gave an IC50 of 1990 nM.
In the case of `Cc1cc(F)ccc1Cn1ccc2cc(NS(C)(=O)=O)cc(-c3cn(C)c4c(O)nccc34)c21` [Compound 21, N-(1-(4-fluoro-2-methylbenzyl)-7-(7-hydroxy-1-methyl-1H-pyrrolo[2,3-c]pyridin-3-yl)-1H-indol-5-yl)methanesulfonamide], the IC50 is reported as 3500 nM.
With `Cc1cc(F)cc(C)c1Cn1ccc2cc(NS(C)(=O)=O)cc(-c3cn(C)c4c(O)nccc34)c21` [Compound 22, N-(1-(4-fluoro-2,6-dimethylbenzyl)-7-(7-hydroxy-1-methyl-1H-pyrrolo[2,3-c]pyridin-3-yl)-1H-indol-5-yl)methanesulfonamide] the IC50 was 526 nM.
`CCS(=O)(=O)Nc1cc(-c2cn(C)c3c(O)nccc23)cc2c1ccn2Cc1ccc(F)cc1` [Compound 24, N-(1-(4-fluorobenzyl)-6-(7-hydroxy-1-methyl-1H-pyrrolo[2,3-c]pyridin-3-yl)-1H-indol-4-yl)ethanesulfonamide] was tested, and the IC50 was < 200 nM.
With `CCS(=O)(=O)Nc1cc(-c2cn(C)c3c(O)nccc23)cc2c1ccn2Cc1ccc(F)cc1C` [Compound 25, N-(1-(4-fluoro-2-methylbenzyl)-6-(7-hydroxy-1-methyl-1H-pyrrolo[2,3-c]pyridin-3-yl)-1H-indol-4-yl)ethanesulfonamide] the IC50 was < 200 nM.
For `CCS(=O)(=O)Nc1cc(-c2cn(C)c3c(O)nccc23)cc2c1ccn2Cc1ccc(F)cc1Cl` [Compound 26, N-(1-(2-chloro-4-fluorobenzyl)-6-(7-hydroxy-1-methyl-1H-pyrrolo[2,3-c]pyridin-3-yl)-1H-indol-4-yl)ethanesulfonamide], the IC50 was < 200 nM.
`CCS(=O)(=O)Nc1cc(-c2cn(C)c3c(O)nccc23)cc2c1ccn2Cc1c(C)cc(F)cc1C` [Compound 27, N-(1-(4-fluoro-2,6-dimethylbenzyl)-6-(7-hydroxy-1-methyl-1H-pyrrolo[2,3-c]pyridin-3-yl)-1H-indol-4-yl)ethanesulfonamide] was tested, and the IC50 was < 1000 nM.
In the case of `CCS(=O)(=O)Nc1cc(-c2cn(C)c3c(O)nccc23)cc2c1ccn2Cc1c(C)cccc1C` [Compound 28, N-(1-(2,6-dimethylbenzyl)-6-(7-hydroxy-1-methyl-1H-pyrrolo[2,3-c]pyridin-3-yl)-1H-indol-4-yl)ethanesulfonamide], the IC50 is reported as < 1000 nM.
With `CCS(=O)(=O)Nc1cc(-c2cn(C)c3c(O)nccc23)cc2c1ccn2Cc1ccc(F)cc1F` [Compound 29, N-(1-(2,4-difluorobenzyl)-6-(7-hydroxy-1-methyl-1H-pyrrolo[2,3-c]pyridin-3-yl)-1H-indol-4-yl)ethanesulfonamide] the IC50 was < 500 nM.
`CCS(=O)(=O)Nc1cc(-c2cn(C)c3c(O)nccc23)cc2c1cnn2Cc1ccc(F)cc1C` [Compound 32, N-(1-(4-fluoro-2-methylbenzyl)-6-(7-hydroxy-1-methyl-1H-pyrrolo[2,3-c]pyridin-3-yl)-1H-indazol-4-yl)ethanesulfonamide] was tested, and the IC50 was < 200 nM.
`CCS(=O)(=O)Nc1cc(-c2cn(C)c3c(O)nccc23)cc2c1cnn2Cc1c(C)cc(F)cc1C` [Compound 33, N-(1-(4-fluoro-2,6-dimethylbenzyl)-6-(7-hydroxy-1-methyl-1H-pyrrolo[2,3-c]pyridin-3-yl)-1H-indazol-4-yl)ethanesulfonamide] was tested, and the IC50 was < 1000 nM.
`CCS(=O)(=O)Nc1cc(-c2cn(C)c3c(O)nccc23)cc2c1cnn2Cc1ccc(F)cc1F` [Compound 34, N-(1-(2,4-difluorobenzyl)-6-(7-hydroxy-1-methyl-1H-pyrrolo[2,3-c]pyridin-3-yl)-1H-indazol-4-yl)ethanesulfonamide] was tested, and the IC50 was < 500 nM.
`CCS(=O)(=O)Nc1cc(-c2cn(C)c3c(O)nccc23)cc2c1cnn2Cc1ccc(F)cc1Cl` [Compound 35, N-(1-(2-chloro-4-fluorobenzyl)-6-(7-hydroxy-1-methyl-1H-pyrrolo[2,3-c]pyridin-3-yl)-1H-indazol-4-yl)ethanesulfonamide] was tested, and the IC50 was < 500 nM.
`CCS(=O)(=O)Nc1cc(-c2cn(C)c3c(O)nccc23)cc2c1cnn2Cc1cccc(Cl)c1Cl` [Compound 36, N-(1-(2,3-dichlorobenzyl)-6-(7-hydroxy-1-methyl-1H-pyrrolo[2,3-c]pyridin-3-yl)-1H-indazol-4-yl)ethanesulfonamide] was tested, and the IC50 was < 1000 nM.
For `CCS(=O)(=O)Nc1cc(-c2cn(C)c3c(O)nccc23)cc2c1ncn2Cc1ccc(F)cc1` [Compound 37, N-(1-(4-fluorobenzyl)-6-(7-hydroxy-1-methyl-1H-pyrrolo[2,3-c]pyridin-3-yl)-1H-benzo[d]imidazol-4-yl)ethanesulfonamide], the IC50 was < 1000 nM.
For `Cn1cc(-c2cc(NS(C)(=O)=O)c3ncn(Cc4ccc(F)cc4)c3c2)c2ccnc(O)c21` [Compound 38, N-(1-(4-fluorobenzyl)-6-(7-hydroxy-1-methyl-1H-pyrrolo[2,3-c]pyridin-3-yl)-1H-benzo[d]imidazol-4-yl)methanesulfonamide], the IC50 was < 200 nM.
For `Cn1cc(-c2nc3c(NS(C)(=O)=O)cccc3n2Cc2ccc(F)cc2)c2ccnc(O)c21` [Compound 39, N-(1-(4-fluorobenzyl)-2-(7-hydroxy-1-methyl-1H-pyrrolo[2,3-c]pyridin-3-yl)-1H-benzo[d]imidazol-4-yl)methanesulfonamide], the IC50 was < 1000 nM.
With `CCS(=O)(=O)Nc1cccc2c1nc(-c1cn(C)c3c(O)nccc13)n2Cc1ccc(F)cc1` [Compound 40, N-(1-(4-fluorobenzyl)-2-(7-hydroxy-1-methyl-1H-pyrrolo[2,3-c]pyridin-3-yl)-1H-benzo[d]imidazol-4-yl)ethanesulfonamide] the IC50 was < 1000 nM.
With `CCS(=O)(=O)Nc1cccc2c1nc(-c1cn(C)c3c(O)nccc13)n2Cc1ccc(F)cc1C` [Compound 41, N-(1-(4-fluoro-2-methylbenzyl)-2-(7-hydroxy-1-methyl-1H-pyrrolo[2,3-c]pyridin-3-yl)-1H-benzo[d]imidazol-4-yl)ethanesulfonamide] the IC50 was < 1000 nM.
For `CCS(=O)(=O)Nc1cccc2c1nc(-c1cn(C)c3c(O)nccc13)n2Cc1c(C)cc(F)cc1C` [Compound 42, N-(1-(4-fluoro-2,6-dimethylbenzyl)-2-(7-hydroxy-1-methyl-1H-pyrrolo[2,3-c]pyridin-3-yl)-1H-benzo[d]imidazol-4-yl)ethanesulfonamide], the IC50 was < 1000 nM.
With `CCS(=O)(=O)Nc1cccc2c1nc(-c1cn(C)c3c(O)nccc13)n2Cc1ccc(F)cc1F` [Compound 43, N-(1-(2,4-difluorobenzyl)-2-(7-hydroxy-1-methyl-1H-pyrrolo[2,3-c]pyridin-3-yl)-1H-benzo[d]imidazol-4-yl)ethanesulfonamide] the IC50 was < 1000 nM.
For `CCS(=O)(=O)Nc1cc(-c2cn(C)c3c(O)nccc23)cc2c1cnn2Cc1cccc2ccsc12` [Compound 44, N-(1-(benzo[b]thiophen-7-ylmethyl)-6-(7-hydroxy-1-methyl-1H-pyrrolo[2,3-c]pyridin-3-yl)-1H-indazol-4-yl)ethanesulfonamide], the IC50 was > 100 nM.
`CCS(=O)(=O)Nc1cc(-c2cn(C)c3c(O)nccc23)cc2c1cnn2Cc1cccc2c1ccn2C` [Compound 45, N-(6-(7-hydroxy-1-methyl-1H-pyrrolo[2,3-c]pyridin-3-yl)-1-((1-methyl-1H-indol-4-yl)methyl)-1H-indazol-4-yl)ethanesulfonamide] was tested, and the IC50 was > 100 nM.
With `Cn1cc(-c2cc(NS(=O)(=O)C3CC3)c3cnn(Cc4ccccc4)c3c2)c2ccnc(O)c21` [Compound 46, N-(1-benzyl-6-(7-hydroxy-1-methyl-1H-pyrrolo[2,3-c]pyridin-3-yl)-1H-indazol-4-yl)cyclopropanesulfonamide] the IC50 was < 1000 nM.
For `CCS(=O)(=O)Nc1cc(-c2cn(C)c3c(O)nccc23)cc2c1ccn2Cc1cccc(Cl)c1Cl` [Compound 47, N-(1-(2,3-dichlorobenzyl)-6-(7-hydroxy-1-methyl-1H-pyrrolo[2,3-c]pyridin-3-yl)-1H-indol-4-yl)ethanesulfonamide], the IC50 was < 1000 nM.
With `CCS(=O)(=O)Nc1cc(-c2cn(C)c3c(O)nccc23)cc2c1ccn2Cc1cccc(F)c1F` [Compound 48, N-(1-(2,3-difluorobenzyl)-6-(7-hydroxy-1-methyl-1H-pyrrolo[2,3-c]pyridin-3-yl)-1H-indol-4-yl)ethanesulfonamide] the IC50 was < 1000 nM.
In the case of `CCS(=O)(=O)Nc1cc(-c2cn(C)c3c(O)nccc23)cc2c1ccn2Cc1ccccc1` [Compound 49, N-(1-benzyl-6-(7-hydroxy-1-methyl-1H-pyrrolo[2,3-c]pyridin-3-yl)-1H-indol-4-yl)ethanesulfonamide], the IC50 is reported as < 1000 nM.
